Like-named read-outs stand apart in the source and are kept apart here.
Legend:
[1] = system: GBM8 (high-passage patient-derived GBM line); assay: Drug screening of GBM8 tumor foci on OBSCs; assay type: cell-based, human; settings: for AUC: area under the dose-response curve, trapezoidal rule; for EC10: dose required to kill 10% of the tumor; for EC25: dose required to kill 25% of the tumor; for EC75: dose required to kill 75% of the tumor; for Slope: slope through the EC50; for EC50 / EC90 / IC50: Homo sapiens; for EC50: dose required to kill 50% of the tumor, read-out: EC50; for IC50: dosed day 1, survival via bioluminescence day 4, linear interpolation, read-out: IC50
Method in brief: (§1)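 Tumor foci (25,000 cells) were seeded onto organotypic brain slice cultures 2 h after slicing, two per slice; one day later six drug concentrations were added to the medium or X-ray was applied. Bioluminescence was read 3 days after treatment, normalized to day-one fluorescence and to untreated controls.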

[2] = system: MG-II patient tumor tissue (WHO grade II meningioma); assay: Drug screening of uncultured patient tumor tissue MG-II on OBSCs; assay type: cell-based; settings: Homo sapiens; for EC90: dose required to kill 90% of the tumor
Experimental: (§2) Tumor cells were seeded onto OBSCs 2h after slicing as described above. One day after tumor seeding, six concentrations of each drug were diluted in the media underneath each culture insert, or XRad was applied using an X-Rad 320 Precision X-ray machine (n = 4 tumor foci per concentration; n ≥ 24 tumor foci per drug per cell line). Three days after treatment, the bioluminescence of live tumor cells was measured using an AMI optical imager (Spectral Instruments) and dose-response curves were generated. Tumor survival was normalized to day one tumor fluorescence and compared to an untreated control group.
(§3) To engraft onto OBSCs, the cryopreserved/thawed or fresh brain tumor tissue was filtered through a 100 μm cell strainer. Each 50 mg of tissue was transfected with 1mL mcherry-FLuc Lentivirus at 1.5e7 vg/ml with 1μL polybrene for 4h at 37°C. After incubation, the brain tumor tissue was washed with PBS three times to remove the residual virus and reconstituted in PBS with a final volume of 150 μL. Then the tissue solution was engrafted atop OBSCs at ∼0.5 mg tissue in 3 μL of PBS on each hemisphere of the slice. The OBSC engrafted with patient tumor tissue was incubated at 37°C with 5% CO2 and 95% humidity. The BSM was changed after 24h and subsequently every 3 days. Tumor treatment studies were executed as described above for tumor lines. The viability of the patient tissue was measured by an AMI optical imaging system with the addition of 1.5 mg/mL luciferin underneath the culture insert.
(§4) Several weighted parameters were factored into an overall drug sensitivity score.
(§5) For DSS parameters 1–6, therapeutic windows were calculated by comparing OBSC toxicity and tumor response at the doses where tumor kill passed through the DSS parameter (Table S1 and S3). For DSS parameter 7, the therapeutic window was calculated by comparing the slopes through the tumor EC50 and the OBSC tox EC50. For DSS parameter 8, the therapeutic window was calculated by comparing the areas under tumor kill and OBSC tox curves. Normalized therapeutic window ratios for DSS parameters 1–8 within each drug-tumor-OBSC interaction were calculated in the following manner: within each window, values ranged from +1 to −1, where values approaching +1 signify increasing tumor kill relative to normal tissue toxicity, and values approaching −1 indicate agents where tumors remained highly viable while toxicity to the normal OBSC tissue was elevated. DSS parameters 9–11 were determined based on the behavior of the tumor in response to the drug, as defined above.
(§6) All individually weighed parameters were added together to generate the DSS. Overall DSS from 0 to 100 signify increasing efficacy in tumor kill relative to OBSC toxicity, while scores from 0 to −100 describe scenarios in which tumors thrive more effectively than OBSCs for a given treatment. Dose-response values were calculated via linear interpolation of raw data, not from best-fit curve equations.

[3] = system: LN229 (established GBM line); assay: Drug screening of LN229 tumor foci on OBSCs; assay type: cell-based, human; settings: for EC50 / EC90 / IC50: Homo sapiens; for EC50: LN-229, dose required to kill 50% of the tumor; for EC90: LN-229, dose required to kill 90% of the tumor; for IC50: LN-229, dosed day 1, survival via bioluminescence day 4, linear interpolation; for AUC: area under the dose-response curve, trapezoidal rule; for EC10: dose required to kill 10% of the tumor; for EC25: dose required to kill 25% of the tumor; for Slope: slope through the EC50
Method in brief: as §1

[4] = system: PGBM-R patient tumor tissue (recurrent tumor from same patient as PGBM); assay: Drug screening of uncultured patient tumor tissue PGBM-R on OBSCs; assay type: cell-based, human
Experimental: as §2, §3, §4, §5, §6

[5] = system: U373WT (wild-type established GBM line); assay: Drug screening of U373WT tumor foci on OBSCs; assay type: cell-based, human; settings: U373 WT on OBSCs; for EC50 / EC90 / IC50: Homo sapiens, U373 MG; for EC50: dose required to kill 50% of the tumor; for EC90: dose required to kill 90% of the tumor; for IC50: dosed day 1, survival via bioluminescence day 4, linear interpolation; for AUC: area under the dose-response curve, trapezoidal rule; for EC10: dose required to kill 10% of the tumor; for Slope: slope through the EC50
Method in brief: as §1

[6] = system: U373KO (RAD18 knockout of U373WT via CRISPR); assay: Drug screening of U373KO tumor foci on OBSCs; assay type: cell-based, human; settings: U373 KO on OBSCs; for EC50 / EC90 / IC50: Homo sapiens, U373 MG; for EC50: dose required to kill 50% of the tumor; for EC90: dose required to kill 90% of the tumor; for IC50: dosed day 1, survival via bioluminescence day 4, linear interpolation; for AUC: area under the dose-response curve, trapezoidal rule
Method in brief: as §1

[7] = system: PDIPG (low-passage pediatric patient-derived line); assay: Drug screening of PDIPG tumor foci on OBSCs; assay type: cell-based, human; settings: for IC50: dosed day 1, survival via bioluminescence day 4, linear interpolation, read-out: IC50; for AUC: area under the dose-response curve, trapezoidal rule; for EC10: dose required to kill 10% of the tumor; for EC25: dose required to kill 25% of the tumor; for Slope: slope through the EC50
Method in brief: as §1

[8] = system: MS21 (low-passage patient-derived GBM line); assay: Drug screening of MS21 tumor foci on OBSCs; assay type: cell-based, human; settings: for AUC: area under the dose-response curve, trapezoidal rule; for EC25: dose required to kill 25% of the tumor; for Slope: slope through the EC50
Method in brief: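 Drug effects on tumor foci grown on brain slices are quantified by bioluminescence three days after treatment, relative to untreated foci and day-one fluorescence. Efficacy versus slice toxicity is combined into a weighted drug sensitivity score.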

[9] = system: PIS patient tumor tissue (intracranial sarcoma); assay: Drug screening of uncultured patient tumor tissue PIS on OBSCs; assay type: cell-based, human; settings: Homo sapiens, PIS on OBSCs; for EC90: dose required to kill 90% of the tumor
Method in brief: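 Uncultured patient tumour tissue, transduced with mCherry-FLuc lentivirus, engrafted on organotypic brain slice cultures (OBSCs); six drug concentrations or X-ray dosing given one day after seeding, n = 4 foci per concentration. Bioluminescence with luciferin read three days post-treatment, normalised to day one and untreated controls; drug sensitivity score combines weighted therapeutic-window parameters versus OBSC toxicity (−100 to 100).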

[10] = system: PGBM patient tumor tissue (pediatric GBM); assay: Drug screening of uncultured patient tumor tissue PGBM on OBSCs; assay type: cell-based, human
Experimental: as §2, §3, §4, §5, §6

[11] = system: MB231Br (breast cancer metastasis to brain); assay: Drug screening of MB231Br tumor foci on OBSCs; assay type: cell-based, human; settings: for EC50 / EC90 / IC50: Homo sapiens; for EC50: dose required to kill 50% of the tumor; for EC90: dose required to kill 90% of the tumor; for IC50: MB231Br on OBSCs, dosed day 1, survival via bioluminescence day 4, linear interpolation; for AUC: area under the dose-response curve, trapezoidal rule
[12] = dose required to kill 50% of the tumor
[13] = dose required to kill 25% of the tumor

## Cn1nnc2c(C(N)=O)ncn2c1=O [Temozolomide]
[1]; GBM8 on OBSCs
  Killing at highest dose: 1.00E+00 fraction of tumor population killed
  AUC: 9.52E+01
  EC10: 1.52 µM
  EC25: 3.79 µM
  EC75: 31.2 µM
  Slope: -6.60E-02
  EC50: 7.58 µM
  IC50: 7.6 µM
[1]; GBM8 on OBSCs, dose required to kill 90% of the tumor, read-out: EC90
  EC90: 167 µM
[2]; [12]
  EC50: > 100 µM
[2]
  EC90: > 10 µM
[3]
  Killing at highest dose: 3.50E-01 fraction of tumor population killed
  EC50: > 10 µM
  EC90: > 10 µM
  IC50: > 10 µM
  AUC: 1.53E+03
  EC10: 59.4 µM
  EC25: 460 µM
  Slope: -4.00E-05
[4]; Homo sapiens, PGBM-R on OBSCs, dose required to kill 90% of the tumor
  EC90: > 10 µM
[4]; PGBM-R patient tissue, scale -100 to +100
  DSS (drug sensitivity score): 17
[5]
  EC50: > 10 µM
  EC90: > 10 µM
  IC50: > 10 µM
  Killing at highest dose: 2.20E-01 fraction of tumor population killed
  AUC: 1.52E+03
  EC10: 67.3 µM
  Slope: -9.14E-06
[5]; [13]
  EC25: 96.2 µM
[6]
  EC50: 1.16 mM
  EC90: > 10 µM
  IC50: 1.16 mM
  Killing at highest dose: 5.40E-01 fraction of tumor population killed
  AUC: 8.89E+02
[6]; dose required to kill 10% of the tumor
  EC10: 3.85 µM
[6]; [13]
  EC25: 9.62 µM
[6]; slope through the EC50
  Slope: -8.67E-04
[7]; Homo sapiens, PDIPG on OBSCs, dose required to kill 90% of the tumor, read-out: EC90
  EC90: > 10 µM
[7]; Homo sapiens, PDIPG on OBSCs
  IC50: > 10 µM
[7]; PDIPG on OBSCs
  Killing at highest dose: 2.90E-01 fraction of tumor population killed
  AUC: 1.88E+03
  EC10: 5 µM
  EC25: 667 µM
  Slope: -4.80E-05
[8]; MS21 on OBSCs
  Killing at highest dose: -8.20E-01 fraction of tumor population killed
  AUC: 2.37E+03
  EC25: 417 µM
  Slope: 5.47E-04
[8]; MS21 on OBSCs, dose required to kill 75% of the tumor
  EC75: 1250 µM
[9]; [12]
  EC50: > 100 µM
[9]
  EC90: > 10 µM
[10]; Homo sapiens, PGBM on OBSCs, dose required to kill 50% of the tumor
  EC50: > 100 µM
[10]; Homo sapiens, PGBM on OBSCs, dose required to kill 90% of the tumor
  EC90: > 10 µM
[10]; PGBM patient tissue, scale -100 to +100
  DSS (drug sensitivity score): 26
[11]; MB231BR on OBSCs
  EC50: > 10 µM
  EC90: > 10 µM
  Killing at highest dose: -3.30E-01 fraction of tumor population killed
  AUC: 2.58E+03
[11]
  IC50: > 10 µM

## CC[C@]1(O)C[C@H]2CN(CCc3c([nH]c4ccccc34)[C@@](C(=O)OC)(c3cc4c(cc3OC)N(C=O)[C@H]3[C@@](O)(C(=O)OC)[C@H](OC(C)=O)[C@]5(CC)C=CCN6CC[C@]43[C@@H]65)C2)C1 [Vincristine]
[1]; GBM8 on OBSCs
  Killing at highest dose: 1.00E+00 fraction of tumor population killed
  AUC: 2.38E-01
  EC10: 0.00435 µM
  EC25: 0.0129 µM
  EC75: 0.0843 µM
  Slope: -7.00E+00
  EC50: 0.0486 µM
  IC50: 0.05 µM
[1]
  EC90: 0.26 µM
[2]
  EC90: > 10 µM
[3]
  Killing at highest dose: 4.10E-01 fraction of tumor population killed
  EC50: > 10 µM
  EC90: > 10 µM
  IC50: > 10 µM
  AUC: 6.37E+00
  EC10: 0.00667 µM
  EC25: 0.418 µM
  Slope: -8.89E-03
[5]
  EC50: > 10 µM
  EC90: > 10 µM
  IC50: > 10 µM
  Killing at highest dose: -6.60E-01 fraction of tumor population killed
  AUC: 1.36E+01
  EC10: 0.82 µM
  Slope: 5.78E-02
[6]
  EC50: > 0.01 mM
  EC90: > 10 µM
  IC50: > 0.01 mM
  Killing at highest dose: -7.40E-01 fraction of tumor population killed
  AUC: 1.89E+01
[7]; Homo sapiens
  EC90: > 10 µM
[7]; Homo sapiens, PDIPG on OBSCs, dose required to kill 50% of the tumor, read-out: EC50
  EC50: > 10 µM
[7]; Homo sapiens, PDIPG on OBSCs
  IC50: > 10 µM
[7]; PDIPG on OBSCs
  Killing at highest dose: 4.86E-01 fraction of tumor population killed
  AUC: 6.36E+00
  EC10: 0.242 µM
  EC25: 0.406 µM
  Slope: -2.32E-02
[8]; Homo sapiens
  EC90: > 10 µM
[8]; Homo sapiens, MS21 on OBSCs, dose required to kill 50% of the tumor, read-out: EC50
  EC50: 4.6 µM
[8]; Homo sapiens, MS21 on OBSCs, dosed day 1, survival via bioluminescence day 4, linear interpolation, read-out: IC50
  IC50: 4.6 µM
[8]; MS21 on OBSCs
  Killing at highest dose: 5.30E-01 fraction of tumor population killed
  AUC: 5.22E+00
  EC25: 0.172 µM
  Slope: -5.56E-03
[8]; MS21 on OBSCs, dose required to kill 10% of the tumor
  EC10: 5.26 nM
[9]
  EC90: > 10 µM
[11]; MB231BR on OBSCs
  EC50: > 10 µM
  EC90: > 10 µM
  Killing at highest dose: 7.00E-02 fraction of tumor population killed
  AUC: 1.02E+01
[11]
  IC50: > 10 µM
[11]; MB231BR on OBSCs, slope through the EC50
  Slope: -1.89E-02

Source: paper PMC10313921, “A living ex vivo platform for functional, personalized brain cancer diagnosis” (Cell Reports Medicine, 2023)
